Assays:
786-O tumors = test: Tumor formation and survival of NSG mice bearing 786-O isogenic cells; type: in vivo; conditions: for median survival: 0.5 mg/kg bortezomib arm n=10; for HR: bortezomib vs PBS, p=3E-6, log rank test
Protocol: (§1) Colony formation of parental (WT) or PBRM1 knockout (KO) 786-O cells expressing shRNA against non-targeting control (NC), RELA, or NFKB1 cultured with a) 10% or b) 2% serum. c) Gene expression changes of NF-κB target genes in 786-O cells treated with 0.006 μM bortezomib (BTZ) or 0.6 µM Bay 11-7085 for 24 hours (n=3 technical replicates). * p-value<0.05 (two-sided t-test). […] A positive log fold change refers to gain in bortezomib treatment over DMSO. g) Colony formation of 786-O isogenic cells and h) NCC432 isogenic cells treated with bortezomib for a week. Tumor formation of isogenic 786-O cells (i) and NCC432 cells (j) treated with PBS control or 0.5 mg/kg bortezomib (BTZ) in NSG mice. (n=10 tumors per group for 786-O, and n=16 tumors for NCC432 PBS EV group and 12 tumors for NCC432 PBS PBRM1 group and 14 tumors for both NCC432 EV and PBRM1 BTZ groups). Data are presented as mean values+/−SEM. k) Model for the study.
Data are presented as median+/−25%. Lower whisker is smallest observation greater than or equal to 25% quantile-1.5*interquantile range (IQR). Upper whisker represents the largest observation less than or equal to 75%+1.5*IQR. Amount of normalized RELA protein in the c) input or d) co-immunoprecipitated with SMARCA4 from 3 independent runs. Data are presented as mean values+/−SD. e) Tornado plots of RELA and SMARCA4 ChIP-seq signals in parental 786-0 or PBRM1-KO 786-O cells treated with DMSO or 0.005 μM bortezomib for 9 hours. f) Kaplan-Meier curves of NSG mice bearing 786-O isogenic cells treated with PBRM1 control or 0.5 mg/kg bortezomib (WT: n=10 PBS arm, median survival=39 days; n=10 bortezomib arm, median survival=52 days, HR=4.1, p=3E-6, log rank test; KO: n=10 PBS arm, median survival=35 days, n=10 bortezomib arm, median survival=66 days, HR=4.1, p=3E-6, log rank test). g) Kaplan-Meier curves of NSG mice bearing NCC432 isogenic cells treated with PBRM1 control or 0.5 mg/kg bortezomib (EV: n=16 PBS arm, median survival=42 days; n=14 bortezomib arm, median survival=49 days, HR=2.5, p=0.0009, log rank test; PBRM1: n=12 PBS arm, median survival=55 days; n=14 bortezomib arm, median survival=58 days, HR=1.2, p=0.5, log rank test). h) 786-O PBRM1 WT or KO cells were screened against the high-specific SGC epigenetic probe collection and cell viability was measured by colony formation after 1 week of treatment relative to DMSO control.
All animal studies were conducted in compliance with animal protocols approved by Institutional Animal Care and Use Committee (IACUC) of Singapore. Female NOD/SCID mice (8-10 week old) were implanted subcutaneously with 1×10^6 786-0 cells with either wildtype PBRM1 or PBRM1 knocked out subcutaneously. Male NSG mice (The Jackson laboratory) were implanted with 1×10^6 A498, NCC2112 or NCC432 with or without PBRM1. Tumor volume was monitored every 3-4 days. Tumor volume was calculated as (length×width×width)×π/6. Animals were sacrificed when the tumor volume exceeded 2000 mm^3.
Bortezomib […] was given twice weekly (day1, day 4) to male NSG mice (The Jackson laboratory) via the tail vein. Tumor volume and body weight were monitored every 3-4 days.

NCC432 cells = test: Colony formation, NCC432 isogenic cells; type: cell-based, human; conditions: NCC432, a week
Protocol: as §1
In 6 wells, 1,000 786-O cells or 2,500 NCC432 cells were seeded and treated with DMSO control or increasing concentration of drugs for 7 days and stained with crystal violet. For drug screening, we used SGC epigenetic probe collection. For RNA-seq with bortezomib treatment, 2×10^5 786-O cells were treated with DMSO or 0.005 μM bortezomib and harvested 9 hours after treatment for RNA extraction. […]

[1] = tested on: SMARCA4 and RELA interaction; test: Co-immunoprecipitation of RELA with SMARCA4 after bortezomib; type: cell-based, human; conditions: bortezomib treatment
Text: Data are presented as median+/−25%. Lower whisker is smallest observation greater than or equal to 25% quantile-1.5*interquantile range (IQR). Upper whisker represents the largest observation less than or equal to 75%+1.5*IQR. Amount of normalized RELA protein in the c) input or d) co-immunoprecipitated with SMARCA4 from 3 independent runs. […]

[2] = tested on: NF-κB pathway (786-O cells); test: RNA-seq after bortezomib, 786-O; type: cell-based, human
Protocol: as §1
In 6 wells, 1,000 786-O cells or 2,500 NCC432 cells were seeded and treated with DMSO control or increasing concentration of drugs for 7 days and stained with crystal violet. For drug screening, we used SGC epigenetic probe collection. For RNA-seq with bortezomib treatment, 2×10^5 786-O cells were treated with DMSO or 0.005 μM bortezomib and harvested 9 hours after treatment for RNA extraction. For RT-qPCR with SMARCA2/4 ATPase inhibitor treatment, 1×10^5 786-O cells were treated with DMSO or 0.01 μM SMARCA2/4 ATPase inhibitor (Targetmol, T10616, CAS: 2270879-17-7) for 3 days before RNA extraction.
Total RNA was extracted using the Qiagen RNeasy Mini kit. RNA-seq libraries were prepared using Illumina Tru-Seq Stranded Total RNA kit protocol, according to the manufacturer's instructions (Illumina, San Diego, California, USA). […] Sequencing was performed on an Illumina HiSeq4000 sequencer with the paired-end 150 bp read option.
RNA-Seq Pathway Analysis RNA-seq data were mapped to hg19 (h117d5) using STAR, with GENCODE annotation (gencode.v19.annotation.gtf) and recommended settings from STAR manual. Gene expression levels were quantified with STAR. […]

## CC(C)C[C@H](NC(=O)[C@H](Cc1ccccc1)NC(=O)c1cnccn1)B(O)O [bortezomib]
786-O tumors; 0.5 mg/kg bortezomib
  survival, mice bearing PB1-deficient vs PB1-proficient cells: survived for a longer duration
786-O tumors; 0.5 mg/kg bortezomib, NSG mice
  tumor response, PB1-deficient vs PB1-proficient isogenic cells: responded better
786-O tumors; 786-O KO, PBS arm 35 days
  median survival: 66 days
786-O tumors; 786-O KO
  HR: 4.1
786-O tumors; 786-O WT, PBS arm 39 days
  median survival: 52 days
786-O tumors; 786-O WT
  HR: 4.1
786-O tumors; 786-O and NCC432, Example 2 summary
  selectivity for PB1-deficient tumors (summary): selectively targets PB1-deficient tumors
NCC432 cells
  reduction of colony formation, PB1-deficient vs PB1-proficient isogenic cells: preferential reduction of colony formation
[1]
  effect on interaction between SMARCA4 and RELA: did not significantly affect
[2]; 0.005 μM bortezomib, 9 hours, RNA-seq
  effect on NF-κB pathway by global transcriptomics: downregulation of the NF-κB pathway
[2]; Example 2 summary
  effect on NF-κB activation (summary): reverses NF-κB activation
[2]; in addition to RELA targets, 786-O
  additional targets upregulated by PB1 loss that were suppressed: 127 targets

Reference: patent US20260357349A1, “METHODS OF IDENTIFYING AND TREATING CANCER” (Agency for Science, Technology and Research, priority 2022, published 2026)
